The source made the active and inactive calls. The rule behind the calls is not given here.
Tests used:
SARS-CoV-2 [1] = test: Antiviral activity against SARS CoV-2 spike-pseudotyped lentivirus infected in human A549-hACE2-TMPRSS2 cells assessed as inhibition of viral entry preincubated with 10 mg/ml BSA for 5 mins followed by viral infection and further incubated for 24 hrs by luciferase reporter assay; assay type: functional, organism-based; details: Severe acute respiratory syndrome coronavirus 2, A549-hACE2-TMPRSS2
SARS-CoV-2 [2] = test: Antiviral activity against SARS CoV-2 spike-pseudotyped lentivirus infected in human A549-hACE2-TMPRSS2 cells assessed as inhibition of viral entry incubated for 24 hrs in absence of BSA by luciferase reporter assay; assay type: functional, organism-based; details: Severe acute respiratory syndrome coronavirus 2, A549-hACE2-TMPRSS2, 24 h
SARS-CoV-2 [3] = test: Antiviral activity against luciferase independent SARS CoV-2 spike-pseudotyped lentivirus infected in human A549-hACE2-TMPRSS2 cells assessed as inhibition of viral entry by measuring reduction in luciferase activity incubated for 24 hrs by luciferase reporter assay; assay type: functional, organism-based; details: Severe acute respiratory syndrome coronavirus 2
SARS-CoV-2 [4] = test: Antiviral activity against luciferase independent SARS CoV-2 spike-pseudotyped lentivirus infected in human A549-hACE2-TMPRSS2 cells assessed as inhibition of viral entry measured after 24 hrs before centrifugation by luciferase reporter assay; assay type: functional, organism-based; details: Severe acute respiratory syndrome coronavirus 2, A549-hACE2-TMPRSS2
Sus scrofa [5] = species on record: Sus scrofa; test: Inhibition of porcine heart MDH using oxaloacetic acid as substrate assessed as enzyme recovery by measuring residual activity at approximately IC90 preincubated for 5 mins in presence of triton X-0.01% followed by substrate and […] addition and measured for 80 sec by absorbance based analysis relative to control; details: time 380.0 sec
[6] = Absorption property of compound in DMEM media at 100 to 200 uM at 500 to 700 nm by luciferase assay; assay type: physicochemical; details: dose 100-200 µM
[7] = Aggregation property of compound in DMEM media assessed as critical aggregation concentration by DLS assay; assay type: physicochemical
[8] = Aggregation property of compound in 50 mM KPi buffer at pH 7 assessed as critical aggregation concentration by DLS assay; assay type: physicochemical
[9] = Cytotoxicity against human A549-hACE2-TMPRSS2 assessed as reduction in cell viability incubated for 24 hrs by MTT assay; assay type: toxicity, cell-based; details: a549-hace2-tmprss2, 24 h
[10] = Inhibition of porcine heart MDH using oxaloacetic acid as substrate preincubated for 5 mins followed by substrate and […] addition and measured for 80 sec by absorbance based analysis; parameters: species or system Sus scrofa
Sus scrofa [11] = species on record: Sus scrofa; test: Inhibition of porcine heart MDH using oxaloacetic acid as substrate assessed as enzyme recovery by measuring residual activity at approximately IC90 preincubated for 5 mins in presence of 10 mg/ml BSA followed by enzyme addition and measured after 5 mins by absorbance based analysis relative to control; details: time 10.0 min
SARS-CoV-2 [12] = test: Antiviral activity against SARS-CoV-2; assay type: functional, organism-based; details: Severe acute respiratory syndrome coronavirus 2
[13] = molecular target: Spike glycoprotein (Severe acute respiratory syndrome coronavirus 2) (UniProt P0DTC2); test: Binding affinity to Alex-fluor-647 labeled SARS-CoV-2 spike protein assessed as protein-colloid complex formation by measuring fluorescence puncta formation compound preincubated with 10 mg/ml BSA for 5 mins followed by protein addition and further incubated for 5 mins by confocal microscopic analysis
[14] = molecular target: Spike glycoprotein (Severe acute respiratory syndrome coronavirus 2) (UniProt P0DTC2); test: Binding affinity to Alex-fluor-647 labeled SARS-CoV-2 spike protein assessed as protein-colloid complex formation by measuring fluorescence puncta formation incubated for 5 mins by confocal microscopic analysis
Sus scrofa [15] = species on record: Sus scrofa; test: Inhibition of porcine heart MDH using oxaloacetic acid as substrate at approximately IC90 spin-down for 1 hr followed by enzyme addition and measured after 5 mins by absorbance based analysis; details: time 65.0 min
SARS-CoV-2 [16] = test: Antiviral activity against luciferase independent SARS CoV-2 spike-pseudotyped lentivirus infected in human A549-hACE2-TMPRSS2 cells assessed as inhibition of viral entry at 31.6 to 63.3 uM compound spin-down for 1 hr followed by viral infection and measured after 24 hrs by luciferase reporter assay; assay type: functional, organism-based; details: Severe acute respiratory syndrome coronavirus 2, dose 31.6-63.3 µM, time 25.0 hrs
[17] = molecular target: Spike glycoprotein (Severe acute respiratory syndrome coronavirus 2) (UniProt P0DTC2); test: Binding affinity to Alex-fluor-647 labeled SARS-CoV-2 spike protein assessed as protein-colloid complex formation by measuring fluorescence puncta formation incubated for 5 mins in presence of 0.025% Tween-80 by confocal microscopic analysis

| Compound | EC50 (SARS-CoV-2 [1]) [µM] | EC50 (SARS-CoV-2 [2]) [µM] | Activity (SARS-CoV-2 [3]) | EC50 (SARS-CoV-2 [4]) [µM] | Activity (Sus scrofa [5]) [%] | Activity [6] | CAC [7] [µM] | CAC [8] [µM] | Activity [9] | IC50 [10] [µM] | Activity (Sus scrofa [11]) [%] | EC50 (SARS-CoV-2 [12]) [µM] | Activity [13] | Activity [14] | inhibition (Sus scrofa [15]) | Activity (SARS-CoV-2 [16]) | Activity [17] |
| --- | --- | --- | --- | --- | --- | --- | --- | --- | --- | --- | --- | --- | --- | --- | --- | --- | --- |
| CNC(=O)c1cc(Oc2ccc(NC(=O)Nc3ccc(Cl)c(C(F)(F)F)c3)cc2)ccn1 [SORAFENIB] | 21 | 0.41 | Active | 0.27 | – | – | – | – | – | – | – | – | – | – | – | – | – |
| C[C@]12CC[C@@H]3c4ccc(O)cc4C[C@@H](CCCCCCCCC[S+]([O-])CCCC(F)(F)C(F)(F)F)[C@H]3[C@@H]1CC[C@@H]2O (stereo partly drawn) [FULVESTRANT] | – | – | Active | 0.19 | – | – | – | – | – | – | – | – | – | – | – | – | – |
| CC(C)=CCc1c(O)ccc(C(=O)/C=C/c2ccc(O)cc2)c1O [ISOBAVACHALCONE] | – | – | – | – | 109 | Not Active | 63 | 6.1 | Toxic | 36 | 108 | – | – | – | – | – | – |
| O=c1c(O)c(-c2ccc(O)c(O)c2)oc2cc(O)cc(O)c12 [QUERCETIN] | – | – | – | – | 61 | Not Active | 100 | 62 | – | 3.3 | 108 | – | – | – | – | – | – |
| O=c1cc(-c2ccc(O)c(O)c2)oc2cc(O)cc(O)c12 [LUTEOLIN] | – | – | – | – | 89 | Not Active | 28 | 83 | – | 15 | 107 | 10 | – | – | – | – | – |
| CCCCCc1cc(O)c(C/C=C(\C)CCC=C(C)C)c(O)c1C(=O)O [CANNABIGEROLIC ACID] | – | 1.21 | Active | – | 95.7 | Not Active | 162 | 12 | Toxic | 29 | 68 | – | inactive | Active | Active | Active | inactive |
| O=c1cc(-c2ccc(O)c(-c3c(O)cc(O)c4c(=O)cc(-c5ccc(O)cc5)oc34)c2)oc2cc(O)cc(O)c12 [AMENTOFLAVONE] | – | – | – | – | 93 | – | 100 | 25 | – | 6.1 | 78 | – | – | – | – | – | – |
| COc1c(O)cc2oc(-c3ccccc3)cc(=O)c2c1O [OROXYLIN A] | – | – | – | – | 42 | Not Active | – | – | – | 73 | 33 | 20 | – | – | – | Active | – |
| Cc1cc(O)c2c(=O)c3c(O)cc(O)c4c5c(O)cc(O)c6c(=O)c7c(O)cc(C)c8c1c2c(c34)c(c78)c65 [HYPERICIN] | – | 84.4 | – | – | 90 | Not Active | 3.7 | 3.3 | – | 0.3 | 99 | 1.24 | – | – | – | – | – |
| C=C[C@@](C)(/C=C/c1ccc(O)cc1)CCC=C(C)C [BAKUCHIOL] | 51.5 | 5.35 | Active | – | 111 | Not Active | 2.5 | 6.2 | – | 12 | 77 | – | – | – | – | – | – |
| CC1(C)Cc2c(-c3ccccc3)c(-c3ccc(Cl)cc3)c(CC(=O)O)n2C1 [LICOFELONE] | – | – | – | – | – | Not Active | 5.5 | 54 | Toxic | 23 | – | – | – | – | – | – | – |
| O=C(O[C@@H]1Cc2c(O)cc(O)cc2O[C@@H]1c1cc(O)c(O)c(O)c1)c1cc(O)c(O)c(O)c1 [EPIGALOCATECHIN GALLATE] | – | 35.1 | – | – | 63.3 | – | – | – | – | – | 53 | 5.38 | – | – | – | Active | – |
| CC(C)C(=O)OCC(=O)[C@@]12O[C@H](C3CCCCC3)O[C@@H]1C[C@H]1[C@@H]3CCC4=CC(=O)C=C[C@]4(C)[C@H]3[C@@H](O)C[C@@]12C [CICLESONIDE] | – | – | – | – | 66.1 | Not Active | 4.2 | 8.1 | – | 10 | 57 | 20.5 | – | – | – | – | – |
| C=C(C)[C@@H]1CCC(C)=C[C@H]1c1c(O)cc(CCCCC)c(C(=O)O)c1O [CANNABIDIOLIC ACID] | – | – | – | – | 81.3 | Not Active | 14 | 61 | Toxic | 47 | 61 | – | – | – | Active | Active | – |
| CCOC(=O)c1c(CSc2ccccc2)n(C)c2cc(Br)c(O)c(CN(C)C)c12 [UMIFENOVIR] | 25 | 0.26 | Active | 0.44 | 58 | Not Active | 28 | 58 | – | 8.6 | 43 | – | – | – | – | – | – |
| Oc1ccc(-c2[o+]c3cc(O)cc(O)c3cc2O)cc1.[Cl-] [PELARGONIDIN CHLORIDE] | – | – | – | – | 83 | Not Active | 56 | 79 | – | 8.1 | 130 | 50 | – | – | – | – | – |
| Cc1cc(O)c2c(c1)C(=O)c1cc(O)cc(O)c1C2=O [EMODIN] | – | 2.21 | Active | 2.22 | – | Not Active | 63.1 | 8.6 | – | 39 | 67 | 25 | inactive | Active | – | – | inactive |

From ChEMBL document CHEMBL5512692, “Colloidal Aggregation Confounds Cell-Based Covid-19 Antiviral Screens” (J Med Chem, 2024)
